≈ marks a conversion by molar mass, not a printed value.

The record followed here is PMC9415822, “Amphotericin B-PEG Conjugates of ZnO Nanoparticles: Enhancement Antifungal Activity with Minimal Toxicity” (Pharmaceutics, 2022).

The test system of data set [1] is Cryptococcus neoformans ATCC 90112. Nature of the data set: In vitro antifungal assay, broth microdilution (MIC/MFC), C. neoformans. It is filed as cell-based. The procedure:
The broth microdilution method was used to assess the antifungal susceptibility of free AMB, and ZnO, ZnO-AMB, and ZnO-AMB-PEG nanoparticles against Candida albicans ATCC 64548 and Cryptococcus neoformans ATCC 90112 according to the Clinical Laboratory and Standards Institute Guidelines (CLSI, 2015). The nanoparticle solutions were serially diluted in sterile saline to obtain dilutions ranging from 5.0 to 0.00625 µg/mL. Aliquots (100 µL) from different dilutions of different preparations were transferred to the wells of 96-well microtiter plate. Fresh cultures of the tested strains were suspended in RPMI 1640 provided with L-glutamine and MOPS at pH 7.0 to prepare suspensions with a turbidity approximating that of 0.5 McFarland Standard. The fungal suspensions were diluted 1:100 with RPMI 1640 to obtain cell density of 1 × 10^5 CFU/mL. Of the prepared fungal suspensions, 100 µL was added to all dilutions of nanoparticle preparations. The microtiter plates were incubated at 37 °C for 24 h for C. albicans, and 48 h for C. neoformans. The minimum inhibitory concentration (MIC) was considered as the lowest concentration that inhibited the visible turbidity. […] The minimum fungicidal concentration (MFC) was determined according to [23].

Data set [2] relates to Male Wistar rats. Nature of the data set: In vivo toxicity: hematological parameters after injection. Also noted: species or system rat. To be noted: 10 mg/kg intraperitoneal for seven days, blood on eighth day. The procedure:
(§1) Male Wistar rats weighing 180–220 g were used in this study. The animals were housed in rooms with controlled temperature (23 ± 1 °C) and relative humidity (55 ± 5%) and were allowed free access to water and food during acclimatization. Animals were fasted for 24 h before the experiments but could drink water ad libitum. The animal study protocol was approved by the Ethical Committee, Pharmacy College, Prince Sattam Bin Abdulaziz University, Al-Kharj, KSA (approval number: PHARM-11-10-2021).
(§2) Blood parameters including count of leucocytes (WBC) and red blood cell (RBC), and hemoglobin concentration (Hb), and hemocrit percentage were employed to evaluate the hematological toxicity associated with AMB. Furthermore, the kidney functions were assessed by measuring blood urea nitrogen (BUN) and serum creatinine. Hepatic functions were evaluated by the measure of aspartate transaminase (AST) and alanine transaminase (ALT). Four groups of male Wistar rats, each composed of 5 rats weighing approximately 200 g were used in this study. Three groups were intraperitoneally injected with free AMB, ZnO-AMB or ZnO-AMB-PEG (10 mg/kg body weight) for a continuous seven days. The fourth group was left uninjected as control group. On the eighth day, all rats were anesthetized and euthanized by decapitation for hematological and biochemical assays.

Data set [3] has as its system Male Wistar rats. Nature of the data set: In vivo toxicity: biochemical parameters (kidney and liver functions) after injection. Details: species or system rat. To be noted: 10 mg/kg intraperitoneal for seven days, eighth day. The procedure:
as §1, §2

For data set [4], the system named is Candida albicans ATCC 64548. Nature of the data set: In vitro antifungal assay, broth microdilution (MIC/MFC), C. albicans. To be noted: ATCC64548, SDA plates, 37 °C, 48 h. It is filed as cell-based. The procedure: The broth microdilution method was used to assess the antifungal susceptibility of free AMB, and ZnO, ZnO-AMB, and ZnO-AMB-PEG nanoparticles against Candida albicans ATCC 64548 and Cryptococcus neoformans ATCC 90112 according to the Clinical Laboratory and Standards Institute Guidelines (CLSI, 2015). The nanoparticle solutions were serially diluted in sterile saline to obtain dilutions ranging from 5.0 to 0.00625 µg/mL. Aliquots (100 µL) from different dilutions of different preparations were transferred to the wells of 96-well microtiter plate. Fresh cultures of the tested strains were suspended in RPMI 1640 provided with L-glutamine and MOPS at pH 7.0 to prepare suspensions with a turbidity approximating that of 0.5 McFarland Standard. The fungal suspensions were diluted 1:100 with RPMI 1640 to obtain cell density of 1 × 10^5 CFU/mL. Of the prepared fungal suspensions, 100 µL was added to all dilutions of nanoparticle preparations. […] The minimum inhibitory concentration (MIC) was considered as the lowest concentration that inhibited the visible turbidity. The experiment was repeated six times and both positive control (inoculated fungi in broth without any addition) and negative control (sterile broth without fungi) were included in the experiment. The minimum fungicidal concentration (MFC) was determined according to [23].

The compound `C[C@@H]1[C@H](O)[C@@H](C)/C=C/C=C/C=C/C=C/C=C/C=C/C=C/[C@H](O[C@@H]2O[C@H](C)[C@@H](O)[C@H](N)[C@@H]2O)C[C@@H]2O[C@](O)(C[C@@H](O)C[C@@H](O)[C@H](O)CC[C@@H](O)C[C@@H](O)CC(=O)O[C@H]1C)C[C@H](O)[C@H]2C(=O)O` [AMB, Amphotericin B] returned a minimum inhibitory concentration (MIC) in data set [1] (ATCC90112, RPMI 1640, 37 °C, 48 h) of 0.05 mg/L (≈ 0.0541 µM). Further, the minimum fungicidal concentration (MFC) in data set [1] (ATCC90112, SDA plates, 37 °C, 72 h) amounted to 0.4 mg/L (≈ 0.433 µM). Also, in the data set on Male Wistar rats [2], the Hb came out at 13.22 ± 0.95 g%, the Hematocrit amounted to 37.01 ± 2.68%, the RBCs was 7.09 ± 0.61 ×10^6/μL and the WBCs is recorded as 17.90 ± 2.46 ×10^3/μL. In addition, in the data set with Male Wistar rats [3], the “Kidney Functions BUN” value turned out to be 66.52 ± 12.46 mg%, the “Kidney Functions Creatinine” value was 0.63 ± 0.11 mg%, the “Liver Functions ALT” value was 100.49 ± 20.95 IU/L and the “Liver Functions AST” value is 453.15 ± 120.19 IU/L. In data set [4], this compound registered an MFC of 0.6 mg/L (≈ 0.649 µM).
